The text below walks through data of ChEMBL document CHEMBL5241112, “Insights into the recent progress in the medicinal chemistry of pyranopyrimidine analogs” (RSC Med Chem, 2022).

Each structure is given as a SMILES string. Converted amounts (≈) assume the structure as drawn.

Experiment [1] deals with Staphylococcus aureus. The experiment is described as follows: Antibacterial activity against Staphylococcus aureus MTCC 96 assessed as bacterial growth inhibition incubated for 24 hrs by broth microdilution method. The class given is functional.
In experiment [2] the test system is Staphylococcus aureus. Put plainly: Antibacterial activity against Staphylococcus aureus MLS-16 MTCC 2940 assessed as bacterial growth inhibition incubated for 24 hrs by broth microdilution method. The class given is functional.
Experiment [3] deals with Staphylococcus aureus. The experiment is described as follows: Antibacterial activity against Staphylococcus aureus assessed as bacterial growth inhibition by broth microdilution method. The class given is functional. (In broth dilution the organism is exposed to a series of concentrations in liquid medium.)
The test system of experiment [4] is Escherichia coli. The experiment is described as follows: Antibacterial activity against Escherichia coli assessed as bacterial growth inhibition by broth microdilution method. The class given is functional.
The test system of experiment [5] is Klebsiella pneumoniae. Put plainly: Antibacterial activity against Klebsiella pneumoniae assessed as bacterial growth inhibition by broth microdilution method. The class given is functional.
For experiment [6], the system named is Pseudomonas aeruginosa. Put plainly: Antibacterial activity against Pseudomonas aeruginosa assessed as bacterial growth inhibition by broth microdilution method. The class given is functional.
The next experiment deals with Aspergillus flavus. The experiment is described as follows: Antifungal activity against Aspergillus flavus assessed as fungal growth inhibition by broth microdilution method. The format is functional.
The test system of a further experiment is Candida albicans. The experiment is described as follows: Antifungal activity against Candida albicans assessed as fungal growth inhibition by broth microdilution method. The format is functional.
Experiment [7] relates to Staphylococcus aureus. Put plainly: Antimicrobial activity against Staphylococcus aureus assessed as diameter of inhibition zone at 1 mg/ml incubated for 48 hrs by agar disk diffusion method. The format is functional. The note with it: read-out: DIZ. In general terms: In agar diffusion tests the substance spreads into inoculated agar from a disc or well.
Another experiment has as its system Bacillus cereus. The experiment is described as follows: Antimicrobial activity against Bacillus cereus assessed as diameter of inhibition zone at 1 mg/ml incubated for 48 hrs by agar disk diffusion method. The settings on record: read-out: DIZ. The class given is functional.
Experiment [8] has as its system Escherichia coli. The experiment is described as follows: Antimicrobial activity against Escherichia coli assessed as diameter of inhibition zone at 1 mg/ml incubated for 48 hrs by agar disk diffusion method. The note with it: read-out: DIZ. The class given is functional.
The test system of experiment [9] is Klebsiella pneumoniae. The experiment is described as follows: Antimicrobial activity against Klebsiella pneumoniae assessed as diameter of inhibition zone at 1 mg/ml incubated for 48 hrs by agar disk diffusion method. The format is functional. The note with it: read-out: DIZ.
Experiment [10] concerns Pseudomonas aeruginosa. The experiment is described as follows: Antimicrobial activity against Pseudomonas aeruginosa assessed as diameter of inhibition zone at 1 mg/ml incubated for 48 hrs by agar disk diffusion method. The class given is functional. The note with it: read-out: DIZ.
Another experiment relates to Aspergillus niger. The experiment is described as follows: Antifungal activity against Aspergillus niger assessed as diameter of inhibition zone at 1 mg/ml incubated for 72 to 91 hrs by agar disk diffusion method. The class given is functional. The note with it: time 72-91 hrs, read-out: DIZ.
The test system of the next experiment is Penicillium chrysogenum. Put plainly: Antifungal activity against Penicillium chrysogenum assessed as diameter of inhibition zone at 1 mg/ml incubated for 72 to 91 hrs by agar disk diffusion method. The note with it: time 72-91 hrs, read-out: DIZ. The format is functional.
The next experiment concerns Plasmodium falciparum. Put plainly: microbe, parasite or virus in culture.
In another experiment the test system is A549. The experiment is described as follows: Anticancer activity against human A549 cells assessed as reduction in cell viability incubated for 24 hrs by MTT assay. The format is functional, cell-based. The settings on record: A549, 24 h. In general terms: Tetrazolium assays rely on reduction of a dye to a coloured formazan, in cell work by metabolically active cells.

For experiment [11], the target named is T1, Free fatty acid receptor 3 (Homo sapiens, UniProt O14843).
T1 sequence (O14843 whole entry): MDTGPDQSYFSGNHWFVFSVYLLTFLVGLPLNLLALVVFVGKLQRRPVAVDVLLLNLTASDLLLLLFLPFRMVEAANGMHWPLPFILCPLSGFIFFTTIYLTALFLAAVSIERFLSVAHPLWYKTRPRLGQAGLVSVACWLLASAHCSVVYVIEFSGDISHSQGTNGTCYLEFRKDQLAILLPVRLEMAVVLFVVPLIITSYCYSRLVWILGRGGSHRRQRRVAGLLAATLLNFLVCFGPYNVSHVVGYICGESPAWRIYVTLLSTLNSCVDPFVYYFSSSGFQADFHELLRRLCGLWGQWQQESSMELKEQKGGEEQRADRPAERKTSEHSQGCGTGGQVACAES
Put plainly: Agonist activity at FFA3 (unknown origin) expressed in human Flp-In-293 cells assessed as inhibition of forskolin-stimulated cAMP accumulation incubated for 30 mins by Lance cAMP assay. The format is cell-based.

For experiment [12], the target named is Hydroxycarboxylic acid receptor 2 (Homo sapiens, UniProt Q8TDS4). Put plainly: Agonist activity at human HCA2 expressed in human Flp-In-293 cells assessed as inhibition of forskolin-stimulated cAMP accumulation incubated for 30 mins by Lance cAMP assay. The format is cell-based.
Chain of Hydroxycarboxylic acid receptor 2 (Q8TDS4 whole entry): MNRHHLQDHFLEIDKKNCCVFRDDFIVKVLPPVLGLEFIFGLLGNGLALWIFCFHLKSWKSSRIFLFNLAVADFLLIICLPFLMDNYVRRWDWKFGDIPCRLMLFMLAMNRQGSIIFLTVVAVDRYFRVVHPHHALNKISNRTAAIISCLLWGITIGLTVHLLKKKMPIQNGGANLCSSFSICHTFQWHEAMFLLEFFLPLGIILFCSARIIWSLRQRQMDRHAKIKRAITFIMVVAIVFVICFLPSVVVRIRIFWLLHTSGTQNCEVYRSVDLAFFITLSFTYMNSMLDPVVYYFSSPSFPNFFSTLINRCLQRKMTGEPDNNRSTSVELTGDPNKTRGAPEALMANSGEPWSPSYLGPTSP

The MIC is the smallest concentration in the dilution series that meets the test's criterion for growth inhibition. Regarding `Cc1cc2c(c(=O)o1)C(c1ccc(F)cc1)c1c(Nc3ccc([N+](=O)[O-])cc3)ncnc1O2` (configuration not stated), the figures for the MIC in the experiment on Staphylococcus aureus [1] and in the experiment with Staphylococcus aureus [2] were 7.8 mg/L (≈ 17.5 µM) and 15.6 mg/L (≈ 34.9 µM), respectively.
For the molecule `CCO/C=N/C1=C(C#N)C(c2ccc(F)cc2)c2c(n(C)c(=O)n(C)c2=O)O1` (configuration not stated), the minimum inhibitory concentration (MIC) with Staphylococcus aureus [3] is 6.25 mg/L (≈ 16.3 µM); in the experiment on Escherichia coli [4], 6.25 mg/L (≈ 16.3 µM); with Klebsiella pneumoniae [5] it was 6.25 mg/L (≈ 16.3 µM); in the experiment with Pseudomonas aeruginosa [6], 6.25 mg/L (≈ 16.3 µM); in the experiment with Aspergillus flavus it was 3.12 mg/L (≈ 8.12 µM); in the experiment on Candida albicans it was 3.12 mg/L (≈ 8.12 µM).
As to `Cc1cc2c(c(=O)o1)C(c1ccccc1)c1c(Nc3ccccc3)ncnc1O2` (configuration not stated), the MIC in the experiment with Staphylococcus aureus [2] is 15.6 mg/L (≈ 40.7 µM).
As to `COC(=O)C1=C(N)Oc2[nH]c(=S)[nH]c(=O)c2C1c1ccc(C)cc1` (configuration not stated), the zone of inhibition at 1000 µg/mL in the experiment on Staphylococcus aureus [7] was 15 mm; in the experiment with Bacillus cereus it was 12 mm; with Escherichia coli [8], 16 mm; with Klebsiella pneumoniae [9], 19 mm; with Pseudomonas aeruginosa [10], 21 mm; with Aspergillus niger, 23 mm. Further, in the experiment on Penicillium chrysogenum, the zone of inhibition at 1000 µg/mL stood at 23 mm.
As for `COC(=O)C1=C(N)Oc2[nH]c(=S)[nH]c(=O)c2C1c1ccc(OC)c(OC)c1` (configuration not stated), the zone of inhibition at 1000 µg/mL in the experiment on Staphylococcus aureus [7] was determined as 13 mm; in the experiment with Bacillus cereus, 15 mm; with Escherichia coli [8] it was 16 mm; in the experiment on Klebsiella pneumoniae [9], 14 mm; in the experiment with Pseudomonas aeruginosa [10] it was 12 mm; in the experiment on Aspergillus niger, 0 mm. Besides, in the experiment on Penicillium chrysogenum, the zone of inhibition at 1000 µg/mL worked out at 12 mm.
On to `Cc1cc2c(c(=O)o1)C(c1ccccc1)c1c(Nc3ccc([N+](=O)[O-])cc3)ncnc1O2` (configuration not stated), for which the minimum inhibitory concentration (MIC) in the experiment with Staphylococcus aureus [1] was 7.8 mg/L (≈ 18.2 µM); with Staphylococcus aureus [2], 15.6 mg/L (≈ 36.4 µM).
By IC50 is commonly meant the point on the concentration scale where inhibition reaches its midpoint. As for `C=C[C@H]1CN2CC[C@H]1C[C@H]2[C@H](O)c1ccnc2ccc(OC)cc12` [QUININE], in the experiment on Plasmodium falciparum, the half-maximal inhibitory concentration (IC50) stood at 0.268 mg/L (≈ 0.826 µM).
On to `CCOC(=O)C1=C(C)Oc2nc(C)n(Cc3cn(-c4ccc([N+](=O)[O-])cc4)nn3)c(=O)c2C1c1cccs1` (configuration not stated), for which the IC50 in the experiment on A549 came to 1.85 µM.
As usually defined, the EC50 is the concentration at which the effect is half-maximal. For the molecule `Cc1cc(=O)oc2[nH]c(=S)[nH]c(=O)c12`, the EC50 stood at 0.22 µM in [11] and 0.051 µM in experiment [12].
For `CCOC(=O)C1=C(C)Oc2nc(C)n(Cc3cn(-c4ccc(OC)cc4[N+](=O)[O-])nn3)c(=O)c2C1c1ccccc1` (configuration not stated), the concentration for half-maximal inhibition (IC50) in the experiment with A549 was found to be 5.76 µM.
Take `CCO/C=N/C1=C(C#N)C(c2ccccc2F)c2c(n(C)c(=O)n(C)c2=O)O1` (configuration not stated): the minimum inhibitory concentration (MIC) in the experiment on Staphylococcus aureus [3], with Escherichia coli [4], in the experiment on Klebsiella pneumoniae [5], with Pseudomonas aeruginosa [6], with Aspergillus flavus and in the experiment on Candida albicans was 6.25 mg/L (≈ 16.3 µM) in each case.
`Cc1cc2c(c(=O)o1)C(c1ccc(F)cc1)c1c(Nc3ccccc3)ncnc1O2` (configuration not stated): the MIC in the experiment on Staphylococcus aureus [1] was 7.8 mg/L (≈ 19.4 µM).
In the case of `COC(=O)C1=C(N)Oc2[nH]c(=S)[nH]c(=O)c2C1c1ccc([N+](=O)[O-])cc1` (configuration not stated), the zone of inhibition at 1000 µg/mL with Staphylococcus aureus [7] is 17 mm; in the experiment on Bacillus cereus it was 21 mm; in the experiment on Escherichia coli [8] it was 17 mm; in the experiment on Klebsiella pneumoniae [9] it was 17 mm; with Pseudomonas aeruginosa [10], 20 mm; with Aspergillus niger, 23 mm. Besides, in the experiment with Penicillium chrysogenum, the zone of inhibition at 1000 µg/mL was 12 mm.
On to `O=c1[nH]c(=O)c2c(CCCCCl)cc(=O)oc2[nH]1`, for which, in experiment [12], the 50% effective concentration (EC50) turned out to be 0.051 µM.
For the molecule `CCCCc1cc(=O)oc2[nH]c(=O)[nH]c(=O)c12`, the concentration for a half-maximal effect (EC50) in [11] came out at 0.22 µM.
Regarding `CCOC(=O)C1=C(C)Oc2nc(C)n(Cc3cn(-c4ccc(C(C)=O)cc4)nn3)c(=O)c2C1c1ccccc1` (configuration not stated), the concentration for half-maximal inhibition (IC50) in the experiment on A549 is 6.74 µM.
